The values that follow come from article PMC10138721, “Investigation of the Compatibility between Warheads and Peptidomimetic Sequences of Protease Inhibitors—A Comprehensive Reactivity and Selectivity Study” (International Journal of Molecular Sciences, 2023).

Entries after “also recorded” stand apart in the source; their conditions may differ. Read-outs that look alike come from different tables or passages of the source.

The target of one data set is T1, proteasome β5-subunit (Homo sapiens, UniProt P20618+P28074).
T1 construct: purchased Enzo Life sciences
Put plainly: Fluorometric inhibition assay, proteasome β5-subunit. Format: biochemical.

The target of a further data set is rhodesain (Trypanosoma brucei rhodesiense, UniProt Q95PM0). Put plainly: Fluorometric inhibition assay, rhodesain. As to conditions: for Ki: Rhodesain. Format: biochemical.
The next data set deals with T2, human cathepsin S (CatS) (Homo sapiens, UniProt P25774).
T2 construct: purchased Sigma Aldrich
Put plainly: Fluorometric inhibition assay, cathepsin S. Type of data set: biochemical.

Data set [1] has as its target T3, urokinase-type plasminogen activator (uPA) (Homo sapiens, UniProt P00749).
T3 construct: purchased Sigma Aldrich
Nature of the data set: Fluorometric inhibition assay, uPA. Type of data set: biochemical.

Data set [2] has as its target SARS-CoV-2 main protease (M^pro) (Severe acute respiratory syndrome coronavirus 2, UniProt P0DTD1). Put plainly: Fluorometric (FRET) inhibition assay, SARS-CoV-2 M^pro. Type of data set: biochemical. As to conditions: initial screen at 20 µM, cut-off 80% inhibition.
Data set [3] can be described thus: Reactivity test of warhead probes with PhEtSH + Et3N (NMR/LC-MS). Type of data set: physicochemical. As to conditions: for reactivity with PhEtSH + Et3N (deprotonated thiol), in words: DMSO-d6, up to 240 min; for maximum conversion with PhEtSH + Et3N: DMSO-d6, after 240 min; for time to full conversion with PhEtSH + Et3N: DMSO-d6. An excerpt:
(§1) To investigate the reactivity between the different warheads towards the three classes of proteases (serine, threonine and cysteine proteases), their behavior in model systems under the same reaction conditions (solvent, nucleophile and base) using either NMR or LC-MS analysis was investigated. We used reactivity probes with a Boc-L-Leu-(warhead) sequence. Leucin was chosen as a P1 amino acid to minimize influences of the side chain and due to synthetic accessibility. 2-Phenylethanethiol was used as a model nucleophile to mimic the thiol moiety of cysteine proteases, and sodium ethoxide was used as a serine/threonine replacement. DMSO-d6 was used as solvent. Under these conditions, the nucleophile is deprotonated, simulating the activated serine or threonine in the catalytic triad of serine and threonine proteases, while ethanol as protonated alcohol species turned out to be unreactive in preliminary test reactions. The reactivity tests using 2-phenylethanthiol were carried out in the presence and absence of triethylamine as a base. This allowed for a reactivity comparison of the warheads towards protonated and deprotonated nucleophilic thiol species. Generating a deprotonated thiol species in the presence of triethylamine simulates the deprotonated cysteine in the catalytic dyad of cysteine proteases. Scheme 8 illustrates the reaction of the reactivity assay with both model nucleophiles and the vinyl sulfone moiety 109 as an example.
(§2) The reactivity tests of all Michael acceptors, 109, 110, 111 and 112, the α-ketobenzothiazole 115 and nitrile 117 were investigated using an NMR-based analysis method, while the β-lactam 108 reactivity was investigated via LC-MS, due to its lack of proton signals, which could be used for evaluation of the reactivity in the ^1H-NMR studies, and the irreversible reaction mechanism, which allowed the LC-MS analysis. […] Formation of the expected adducts with the nitrile 117 (PhEtSH/PhEtS^–/EtONa), the α-ketobenzothiazole 115 (PhEtSH/PhEtS^–) and the nitroalkene 111 (EtONa) could not be observed. This may have been due to the covalent reversible reaction mechanism of the nitrile and α-ketobenzothiazole and the overall difficult ionization of the specific compounds by an electron spray ionization mass spectrometer.
(§3) Method A (NMR): ^1H-NMR spectra were recorded for the respective warhead and nucleophile mixture, before the addition of the nucleophile (0 min) and after 5, 30, 60, 120 and 240 min reaction time. For quantification, the double bond-signals (doublet/doublet of doublets, around 7.4–6.7 ppm) of the Michael acceptors were integrated relative to 1,3-dioxolane as an internal standard. The acetal CH2 signal of the internal standard at 5.3 ppm was used as a reference.
(§4) The α-ketobenzothiazole 115 and nitrile 117 were similarly analyzed by ^13C-NMR. Therefore, the corresponding ^13C-leucin derivates were synthesized (Scheme 7). Quantifications of the reactions were carried out by using the integral of the carbonyl carbon atom signal at 195 ppm for the α-ketobenzothiazole and 120 ppm for the nitrile moiety. The reference signal of DMSO-d6 was set to 39.52 ppm.
(§5) Method B (LC-MS): The reactivity of the β-lactam test compound 108 with the nucleophiles was investigated using an LC-MS-based method. To quantify the conversion, the AUCs were determined at 254 nm. In Figure 3, the UV spectra of the test reaction of the β-lactam 108 with EtONa are shown exemplarily.
(§6) The β-lactam 108 (0.07 mmol, 1eq) was solved in DMSO-d6 (0.5 mL). The reaction was measured in time intervals before (0 min), 5, 30, 60, 120 and 240 mins after the addition of the corresponding nucleophile (PhEtSH/EtONa, 2 eq) in presence of Et3N (2 eq) or not. In case of PhEtSH as the nucleophile the reaction got quenched by pouring 10 µL of the reaction mixture into a solution of 25 mM TRIS (pH 7.00) and 27 mM maleimide in a 1:1 mixture of acetonitrile/H2O (990 µL). For the reaction with EtONa as the nucleophile, the reaction solution […]

The nature of data set [4]: Reactivity test of warhead probes with EtONa (NMR/LC-MS). Type of data set: physicochemical. As to conditions: for reactivity with EtONa, in words: DMSO-d6, up to 240 min; for time to full conversion with EtONa: DMSO-d6; for conversion with EtONa: DMSO-d6, after 240 min.
From the text: as §1, §2, §3, §4, §5, §6

Data set [5] in a line: Reactivity test of warhead probes with PhEtSH without base (NMR/LC-MS). Format: physicochemical. As to conditions: non-basic conditions; for conversion with PhEtSH: DMSO-d6, after 240 min; for reactivity with PhEtSH (protonated thiol), in words: DMSO-d6, up to 240 min.
From the text: as §1, §2, §3, §4, §5, §6

Where [6] appears, read: initial screen at 20 µM, cut-off 80% inhibition.

A word on the kinact: it is the rate constant of inactivation at saturating inhibitor.

T2 sequence (P25774 115-331): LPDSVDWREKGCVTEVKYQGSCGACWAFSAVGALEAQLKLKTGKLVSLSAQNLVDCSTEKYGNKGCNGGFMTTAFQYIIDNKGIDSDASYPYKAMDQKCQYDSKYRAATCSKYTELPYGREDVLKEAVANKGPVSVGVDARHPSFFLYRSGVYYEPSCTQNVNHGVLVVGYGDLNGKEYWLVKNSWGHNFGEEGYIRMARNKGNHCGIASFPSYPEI
Chain of rhodesain (Q95PM0 entry or part of it): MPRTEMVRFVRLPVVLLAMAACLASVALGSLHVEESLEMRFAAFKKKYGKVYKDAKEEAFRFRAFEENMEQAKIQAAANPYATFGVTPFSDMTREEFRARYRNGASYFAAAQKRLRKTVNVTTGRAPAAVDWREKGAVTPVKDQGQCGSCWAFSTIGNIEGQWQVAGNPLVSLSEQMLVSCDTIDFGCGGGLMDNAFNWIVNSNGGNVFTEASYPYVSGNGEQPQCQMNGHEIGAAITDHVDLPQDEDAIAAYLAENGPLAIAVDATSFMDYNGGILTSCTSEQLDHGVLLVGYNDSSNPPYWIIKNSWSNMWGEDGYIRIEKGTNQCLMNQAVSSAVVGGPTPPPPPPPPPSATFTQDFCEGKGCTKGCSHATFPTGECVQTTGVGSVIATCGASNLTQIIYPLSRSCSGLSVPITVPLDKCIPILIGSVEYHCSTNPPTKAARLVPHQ

With `CC(C)C[C@@H](/C=C(\F)S(=O)(=O)c1ccccc1)NC(=O)[C@H](Cc1ccccc1)NC(=O)c1cnccn1` [compound 55], the “inhibition of the proteasome β5-subunit, in words” value (shortened to “inhibition”) against proteasome β5-subunit is listed as “None”. The Ki on rhodesain is 462 ± 39 nM; on human cathepsin S (CatS) (Ki, CatS) it was 934 ± 138 nM; on human cathepsin S (CatS) (pKi, Cathepsin S inhibition), 1000 nM.

On to `CC(C)C[C@@H](C=C[N+](=O)[O-])NC(=O)[C@H](Cc1ccccc1)NC(=O)c1cnccn1` [compound 59], for which the “inhibition” value against proteasome β5-subunit was “None”. Further, the Ki on rhodesain was determined as 2 ± 5 nM; on human cathepsin S (CatS) (Ki, CatS), 619 ± 54 nM.

Consider `CC(C)C[C@H](NC(=O)[C@H](Cc1ccccc1)NC(=O)c1cnccn1)C(=O)N[C@H]1CN(c2ccccc2)C1=O` [compound 72], for which, at proteasome β5-subunit, the “inhibition” value was “None and did not inhibit”.

Take `CC(=O)NCC(=O)NC(C(=O)N[C@@H](C)C(=O)N[C@@H](CCCNC(=N)N)C(=O)c1nc2ccccc2s1)[C@H](C)O` (stereo partly shown) [compound 103]: the “inhibition” value against proteasome β5-subunit (setting [6]) is recorded as “not inhibited”. Moreover, the Ki in data set [1] (Table S1; a) calculated from IC50 with Cheng–Prusoff, n.a. = not active (<80% inhibition at 20 µM), read-out: Ki, uPA) was 141 ± 27 nM; in data set [1] (calculated from Ki, –log10(Ki/M), read-out: pKi, uPA inhibition (converted)), 126 nM. Further, the “activity against uPA, in words” value in data set [1] (setting [6]) is given as “active; also recorded: displayed inhibitory activity”. The “activity against rhodesain, in words” value at rhodesain (setting [6]) was “not inhibited; also recorded: inactive”. For the same compound, the “activity against CatS, in words” value on human cathepsin S (CatS) (setting [6]) is “not inhibited; also recorded: not active at 20 µM”. Also, the “activity against M^pro, in words” value in data set [2] is given as “not inhibited”.

For the compound `CC(C)CC(NC(=O)OC(C)(C)C)[13C](=O)c1nc2ccccc2s1` (stereo not shown) [compound 115], the “conversion with PhEtSH + Et3N” value in data set [3] (DMSO-d6, time not stated) is “around 30%”. For the same compound, in data set [3], the “reactivity with PhEtSH + Et3N (deprotonated thiol), in words” value (from here on “reactivity with PhEtSH + Et3N”) is given as “strong reactivity”. Also, the “maximum conversion with EtONa” value in data set [4] (DMSO-d6, maximum reached after 60 min) is reported as 37%. For the same compound, the “reactivity with EtONa, in words” value in data set [4] is recorded as “strong reactivity”. In data set [5], the “conversion with PhEtSH” value came to 18% and the “reactivity with PhEtSH (protonated thiol), in words” value is on record as “did indeed react”.

Regarding `CCOC(=O)/C=C/C(=O)[C@H](CC(C)C)NC(=O)[C@H](Cc1ccccc1)NC(=O)c1cnccn1` [compound 68], the “inhibition” value on proteasome β5-subunit is on record as “None”. The Ki at rhodesain was determined as 9 ± 1 nM. Also, the kinact at rhodesain (read-out: kinact, Rhodesain) was 0.006 ± 0.001 s⁻¹. Besides, on human cathepsin S (CatS), the “activity against CatS, in words” value was “essentially inactive”.

In the case of `CC(C)C[C@H](NC(=O)OC(C)(C)C)C(=O)N[C@H]1CN(c2ccccc2)C1=O` [compound 108], in data set [3], the “reactivity with PhEtSH + Et3N” value was “Every warhead except the β-lactam 108 and the nitrile 117 reacted”. In addition, in data set [4], the “time to full conversion with EtONa” value worked out at 60 min and the “reactivity with EtONa, in words” value was “complete conversion; also recorded: strong reactivity”. Also, in data set [5], the “reactivity with PhEtSH (protonated thiol), in words” value is on record as “conversion was not observed”.

`CC(C)CC(/C=C/[N+](=O)[O-])NC(=O)OC(C)(C)C` (stereo not shown) [compound 111]: in data set [3], the “maximum conversion with PhEtSH + Et3N” value stood at 82% and the “reactivity with PhEtSH + Et3N” value is given as “high reactivity”. Also, the “conversion with EtONa” value in data set [4] amounted to 84%. In data set [5], the “reactivity with PhEtSH (protonated thiol), in words” value was “conversion was not observed”.

Turning to `CC(C)CC(NC(=O)C(Cc1ccccc1)NC(=O)c1cnccn1)C(=O)c1nc2ccccc2s1` (stereo not shown) [compound 62], the “inhibition” value against proteasome β5-subunit was “None and no inhibition”.

For the compound `CCOC(=O)/C=C/C(=O)C(CC(C)C)NC(=O)OC(C)(C)C` (stereo not shown) [compound 112], in data set [3], the “time to full conversion with PhEtSH + Et3N” value is 5 min and the “reactivity with PhEtSH + Et3N” value is recorded as “high reactivity”. Besides, in data set [4], the “time to full conversion with EtONa” value amounted to 5 min and the “reactivity with EtONa, in words” value is listed as “unspecific conversion”. Further, in data set [5], the “conversion with PhEtSH” value is 92% and the “reactivity with PhEtSH (protonated thiol), in words” value is given as “did indeed react; also recorded: high reactivity”.

As to `CC(C)CC(/C=C/S(=O)(=O)c1ccccc1)NC(=O)OC(C)(C)C` (stereo not shown) [compound 109], in data set [3], the “time to full conversion with PhEtSH + Et3N” value is listed as 60 min and the “reactivity with PhEtSH + Et3N” value is listed as “high reactivity”. Further, the “conversion with EtONa” value in data set [4] is 70%. Moreover, in data set [5], the “reactivity with PhEtSH (protonated thiol), in words” value is recorded as “conversion was not observed; also recorded: missing reactivity”.

Consider `CC(C)CC(/C=C(\F)S(=O)(=O)c1ccccc1)NC(=O)OC(C)(C)C` (stereo not shown) [compound 110], for which, in data set [3], the “maximum conversion with PhEtSH + Et3N” value was found to be 86% and the “reactivity with PhEtSH + Et3N” value is “high reactivity”. Also, the “reactivity with EtONa, in words” value in data set [4] was “No conversion”. Moreover, the “reactivity with PhEtSH (protonated thiol), in words” value in data set [5] was “conversion was not observed; also recorded: missing reactivity”.

Take `COC(=O)[C@H](C[C@@H]1CCNC1=O)NC(=O)OC(C)(C)C` [compound 85]: the “inhibition” value against proteasome β5-subunit (setting [6]) is given as “None”.

Consider `CC(C)CC(C#N)NC(=O)C(Cc1ccccc1)NC(=O)c1cnccn1` (stereo not shown) [compound 74], for which, on proteasome β5-subunit, the “inhibition” value is “None and no inhibition and missing inhibition”. For the same compound, the Ki at rhodesain is 560 ± 267 nM; on human cathepsin S (CatS) (Ki, CatS), 238 ± 23 nM.
